Results: ChEMBL document CHEMBL5727633, “Therapeutic compounds” (2020)

Target: CREB-binding protein (Homo sapiens, UniProt Q92793)
Assay: In Vitro CBP Inhibition: The CBP-inhibitory activity of the compounds described herein was determined by calculating the IC50. More specifically, CBP inhibitor activity was assayed as follows: CBP was cloned and expressed in E. coli as His-tag protein and purified by Nickel affinity and gel-filtration chromatography. […] CBP binding and inhibition is assessed by monitoring the interaction of biotinylated H4-tetraacetyl peptide (AnaSpec, H4K5/8/12/16(Ac), biotin-labeled) with the target using the AlphaScreen technology (Perkin Elmer). In a 384-well ProxiPlate CBP (50 nM final) was combined with peptide (20 nM final) in 50 mM HEPES (pH 7.3), 10 mM NaCl, 0.25 mM TCEP, 0.1% (w/v) BSA, and 0.005% (w/v) Brij-35 either in the presence of DMSO (final 0.4% DMSO) or compound dilution series in DMSO. After 20 min incubation at room temp, Alpha-streptavidin donor beads and Nickel Chelate acceptor beads were added to a final concentration of 5 μg/mL.

Sequence of CREB-binding protein (Q92793 whole entry): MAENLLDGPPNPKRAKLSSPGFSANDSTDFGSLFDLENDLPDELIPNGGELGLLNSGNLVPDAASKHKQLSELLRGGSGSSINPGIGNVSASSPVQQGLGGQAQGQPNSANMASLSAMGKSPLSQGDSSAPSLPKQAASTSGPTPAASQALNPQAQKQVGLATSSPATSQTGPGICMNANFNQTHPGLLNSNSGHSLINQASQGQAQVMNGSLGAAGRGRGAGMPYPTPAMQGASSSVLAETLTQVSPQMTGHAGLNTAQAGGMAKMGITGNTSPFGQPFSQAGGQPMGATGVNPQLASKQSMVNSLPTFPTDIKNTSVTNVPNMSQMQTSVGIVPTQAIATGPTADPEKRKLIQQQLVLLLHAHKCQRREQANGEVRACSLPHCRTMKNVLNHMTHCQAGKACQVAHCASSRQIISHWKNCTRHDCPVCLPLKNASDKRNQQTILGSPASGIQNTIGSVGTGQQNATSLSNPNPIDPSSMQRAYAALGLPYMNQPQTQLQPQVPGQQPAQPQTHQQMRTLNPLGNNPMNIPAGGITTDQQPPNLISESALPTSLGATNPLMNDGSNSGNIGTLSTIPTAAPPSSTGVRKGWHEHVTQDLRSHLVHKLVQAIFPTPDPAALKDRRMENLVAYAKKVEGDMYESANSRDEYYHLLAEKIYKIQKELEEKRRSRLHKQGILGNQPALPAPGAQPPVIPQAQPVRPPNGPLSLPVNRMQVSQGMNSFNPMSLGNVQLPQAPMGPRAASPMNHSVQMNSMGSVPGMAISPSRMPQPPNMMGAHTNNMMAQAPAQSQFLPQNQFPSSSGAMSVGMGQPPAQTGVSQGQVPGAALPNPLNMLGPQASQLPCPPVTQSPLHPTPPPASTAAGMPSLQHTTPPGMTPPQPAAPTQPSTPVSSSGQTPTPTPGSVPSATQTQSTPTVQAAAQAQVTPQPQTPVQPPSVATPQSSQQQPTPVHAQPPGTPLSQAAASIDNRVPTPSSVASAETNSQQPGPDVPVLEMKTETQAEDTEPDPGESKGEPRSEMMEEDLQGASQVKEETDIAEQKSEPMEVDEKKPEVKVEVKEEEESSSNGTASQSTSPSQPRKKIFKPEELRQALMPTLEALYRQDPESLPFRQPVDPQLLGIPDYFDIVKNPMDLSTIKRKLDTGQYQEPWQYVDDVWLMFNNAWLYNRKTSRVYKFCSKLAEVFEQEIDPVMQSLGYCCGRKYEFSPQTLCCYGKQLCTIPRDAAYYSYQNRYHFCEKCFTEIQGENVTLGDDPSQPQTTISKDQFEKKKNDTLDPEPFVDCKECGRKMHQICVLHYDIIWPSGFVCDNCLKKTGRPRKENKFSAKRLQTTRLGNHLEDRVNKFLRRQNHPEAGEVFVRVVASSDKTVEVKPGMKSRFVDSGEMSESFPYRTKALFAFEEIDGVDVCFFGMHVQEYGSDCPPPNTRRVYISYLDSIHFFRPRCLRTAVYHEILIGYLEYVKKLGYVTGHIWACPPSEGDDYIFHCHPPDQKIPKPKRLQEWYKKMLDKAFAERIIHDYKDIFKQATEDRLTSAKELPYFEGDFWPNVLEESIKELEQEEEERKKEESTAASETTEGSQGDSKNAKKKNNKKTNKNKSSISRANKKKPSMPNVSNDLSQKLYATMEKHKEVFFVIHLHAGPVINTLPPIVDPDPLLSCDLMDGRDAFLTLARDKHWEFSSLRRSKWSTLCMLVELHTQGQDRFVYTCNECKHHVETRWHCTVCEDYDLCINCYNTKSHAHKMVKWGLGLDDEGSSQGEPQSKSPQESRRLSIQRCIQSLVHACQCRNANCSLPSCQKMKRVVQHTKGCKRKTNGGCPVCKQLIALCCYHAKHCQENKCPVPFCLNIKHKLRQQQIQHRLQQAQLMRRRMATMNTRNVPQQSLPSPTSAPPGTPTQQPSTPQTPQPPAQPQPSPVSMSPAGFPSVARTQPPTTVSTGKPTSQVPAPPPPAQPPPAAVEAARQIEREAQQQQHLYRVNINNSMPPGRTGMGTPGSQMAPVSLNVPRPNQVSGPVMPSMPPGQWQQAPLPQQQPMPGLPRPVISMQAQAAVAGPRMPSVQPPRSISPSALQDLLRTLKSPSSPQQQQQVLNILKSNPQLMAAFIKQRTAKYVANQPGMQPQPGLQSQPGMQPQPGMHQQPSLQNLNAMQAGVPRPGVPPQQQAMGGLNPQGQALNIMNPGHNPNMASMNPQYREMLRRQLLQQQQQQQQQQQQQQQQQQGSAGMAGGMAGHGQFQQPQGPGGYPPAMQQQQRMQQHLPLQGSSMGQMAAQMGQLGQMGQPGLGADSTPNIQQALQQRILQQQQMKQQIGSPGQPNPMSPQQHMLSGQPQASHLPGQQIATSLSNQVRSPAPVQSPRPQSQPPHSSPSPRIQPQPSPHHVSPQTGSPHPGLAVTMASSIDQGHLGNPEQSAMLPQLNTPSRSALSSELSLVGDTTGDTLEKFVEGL

Row | SMILES | IC50 [nM]
1 | CCOc1cc(=O)n(C)cc1-c1cnn(C(C)c2cccc(-c3cnn(C)c3)c2)c1 (configuration not stated) | < 500
2 | Cn1ccc(-c2cc(=O)n(C)cc2-c2cnn(-c3cccc(F)c3C#N)c2)cc1=O | < 500
3 | Cn1cc(-c2cnn(-c3ccccc3-c3nnn[nH]3)c2)c(-c2ccc(F)cc2)cc1=O | < 500
4 | Cn1cc(-c2cnn(Cc3ccccc3)c2)c(-c2cccc(Cl)c2)cc1=O | < 500
5 | COc1ccc(-c2cc(=O)n(C)cc2-c2cnn(-c3ccccc3C#N)c2)cc1 | < 500
6 | COc1cc(-c2cc(=O)n(C)cc2-c2cnn(-c3ccccc3C(=O)NC#N)c2)ccn1 | < 500
7 | COc1ccc(C(=O)O)c(-n2cc(-c3cn(C)c(=O)cc3-c3ccc(Cl)cc3)cn2)c1 | < 500
8 | Cn1cc(-c2cnn(CC3CC3)c2)c(-c2ccc(C(=O)O)cc2)cc1=O | < 500
9 | COc1ccc(-c2cc(=O)n(C)cc2-c2cnn(-c3ccccc3C(=O)NC#N)c2)cn1 | < 500
10 | Cc1cc(-c2cnn(C(c3ccccc3)C3CC3)c2)cn(C)c1=O (configuration not stated) | < 500
11 | Cn1cc(-c2cnn(Cc3ccccc3)c2)c(-c2cnn(CC(=O)O)c2)cc1=O | < 500
12 | Cn1cc(-c2cnn(CC3CC3)c2)c(-c2ccc(C(F)(F)F)cc2)cc1=O | < 500
13 | Cn1cc(-c2cnn(-c3ccccc3C(=O)O)c2)c(-c2ccc(Cl)cc2)cc1=O | < 500
14 | Cn1cc(-c2cnn(CC3CCCCC3)c2)c(-c2ccccc2)cc1=O | < 500
15 | COc1ccc(C#N)c(-n2cc(-c3cn(C)c(=O)cc3-c3ccc(Cl)cc3)cn2)c1 | < 500
16 | CNC(=O)Cn1cc(-c2cn(C)c(=O)cc2-c2ccccc2)cn1 | < 500
17 | CNC(=O)c1ccc(-c2cc(=O)n(C)cc2-c2cnn(CC3CC3)c2)cc1 | < 500
18 | COc1ccc(-c2cc(=O)n(C)cc2-c2cnn(-c3ccccc3C(=O)O)c2)cc1 | < 500
19 | Cn1cc(-c2cnn(Cc3ccccc3)c2)c(-c2ccc(Cl)cc2)cc1=O | < 500
20 | COc1ccccc1-c1cc(=O)n(C)cc1-c1cnn(Cc2ccccc2)c1 | > 5000
21 | Cn1cc(COc2cc(=O)n(C)cc2-c2cnn(-c3ccccc3Cl)c2)cn1 | < 500

Target: Bromodomain-containing protein 4 (Homo sapiens, UniProt O60885)
Assay: In Vitro Enzyme Inhibition Assay-BRD4 Inhibition: Inhibition of BRD4 was determined as described previously. See, e.g., U.S. Pat. No. 9,034,900.

Row | SMILES | IC50 [nM]
22 | Cn1cc(-c2cnn(CC3CC3)c2)c(-c2ccc(C(=O)O)cc2)cc1=O | > 5000
